Experimental data taken from patent US20260176267A1, “PREPARATION OF IMIDAZOPYRIDINE AND IMIDAZOPYRIDAZINE DERIVATIVES AS NOVEL DIACYLGLYCERIDE O-ACYLTRANSFERASE 2 INHIBITORS” (Merck Sharp & Dohme LLC, priority 2022, published 2026).

These compounds were tested against T1, human DGAT2 (hDGAT2) (Homo sapiens, UniProt Q96PD7) (assay: DGAT2 Enzymatic Activity Assay). Settings: membrane prep of Sf-9 cells expressing hDGAT2; 13C18-triolein product by LC/MS/MS; 25 μM diolein, 5 μM 13C oleoyl-CoA, rt.
T1 construct: made in house; host or cells: Sf-9 insect cells (baculovirus), membrane fraction
T1 sequence (Q96PD7 1-388): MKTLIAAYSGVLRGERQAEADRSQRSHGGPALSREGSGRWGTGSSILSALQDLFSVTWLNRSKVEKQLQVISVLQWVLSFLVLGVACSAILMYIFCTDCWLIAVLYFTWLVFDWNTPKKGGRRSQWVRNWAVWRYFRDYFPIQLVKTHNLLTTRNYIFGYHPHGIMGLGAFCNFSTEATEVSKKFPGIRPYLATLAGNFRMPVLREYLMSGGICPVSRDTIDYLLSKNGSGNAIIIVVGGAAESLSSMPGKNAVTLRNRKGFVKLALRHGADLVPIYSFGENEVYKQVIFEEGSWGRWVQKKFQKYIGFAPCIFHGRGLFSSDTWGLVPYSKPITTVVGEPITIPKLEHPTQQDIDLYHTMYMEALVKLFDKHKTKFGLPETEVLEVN
Type: biochemical
Method: Sf-9 insect cells were maintained in Grace's insect cell culture medium with 10% heated-inactivated fetal bovine serum, 1% Pluronic F-68 and 0.14 μg/ml Kanamycine sulfate at 27° C. in a shaker incubator. After infection with untagged baculovirus expressing human DGAT2 (hDGAT2) at multiplicity of infection (MOI) 3 for 48 hours, cells were harvested. Cell pellets were suspended in buffer containing 10 mM Tris-HCl pH 7.5, 1 mM EDTA, 250 mM sucrose and Complete Protease Inhibitor Cocktail (Sigma Aldrich), and sonicated on ice. Cell debris were removed by centrifugation at 2000×g for 15 minutes. Membrane fractions were isolated by ultracentrifugation (100,000×g), resuspended in the same buffer, and frozen (−80° C.) for later use. The protein concentration was determined with the Pierce™ BCA Protein Assay Kit (Thermo Fisher Scientific).
LC/MS/MS analyses were performed using Thermal Fisher's LX4-TSQ Vantage system. This system consists of an Agilent binary high-performance liquid chromatography (HPLC) pump and a TSQ Vantage triple quadrupole MS/MS instrument. For each sample, 2 μL samples from the top organic layer of in-plate liquid-liquid extraction were injected onto a Thermo Betabasic C4 column (2.1 mm×20 mm, 5 μm particle size). The samples were then eluted using the following conditions; mobile phase: Isopropanol:acetonitrile/10 mM ammonium formate=50/35/15 (v/v/v), flow rate: 0.8 mL/min, temperature: 25° C. Data was acquired in positive mode using a heated electrospray ionization (HESI) interface. The operational parameters for the TSQ Vantage MS/MS instrument were a spray voltage of 3000 V, capillary temperature of 280° C., vaporizer temperature 400° C., sheath gas 45 arbitrary unit. Aux gas 10 arbitrary units. […] The peak area was integrated by Xcalibur Quan software. The ratio between the ^13C18 triolein generated in the reaction and spiked in internal standard ^13C21-triolein was used to generate percentage inhibition and IC50 values. Compound percentage inhibition was calculated by the following formula: Inhibition %=1−[(compound response−low control)/(high control−low control)]×100%.
DGAT2 activity was determined by measuring the amount of enzymatic product ^13C18-triolein (^13C-1,2,3-Tri(cis-9-octadecenoyl)glycerol) using the membrane prep mentioned above. The assay was carried out in ABgene 384-well assay plates in a final volume of 25 μL at rt.

Q: With `Cc1c(C(=O)NC2(C)CN(C(=O)C(F)(F)F)C2)nc2ccc(Oc3ncc(F)cc3OCC(F)(F)F)cn12` [Example 89, 6-[[5-fluoro-3-(2,2,2-trifluoroethoxy)-2-pyridyl]oxy]-3-methyl-N-[3-methyl-1-(2,2,2-trifluoroacetyl)azetidin-3-yl]imidazo[1,2-a]pyridine-2-carboxamide] as the compound, how does the IC50 read?
A: Its IC50 is 0.02 µM.

Q: With `Cc1c(C(=O)NC2(C)CCS(=O)(=O)CC2)nc2ccc(OCCC(F)(F)F)cn12` [Example 128, 3-methyl-N-(4-methyl-1,1-dioxo-thian-4-yl)-6-(3,3,3-trifluoropropoxy)imidazo[1,2-a]pyridine-2-carboxamide] as the compound, how does the IC50 read?
A: The IC50 was greater than 9.99 µM.

Q: Which IC50 does the source give for `Cc1c(C(=O)NC2(C)CCS(=O)(=O)CC2)nc2ccc(Oc3ncc(C(C)(C)F)cc3OCC(F)(F)F)cn12` [Example 147, 6-[[5-(1-fluoro-1-methyl-ethyl)-3-(2,2,2-trifluoroethoxy)-2-pyridyl]oxy]-3-methyl-N-(4-methyl-1,1-dioxo-thian-4-yl)imidazo[1,2-a]pyridine-2-carboxamide] here?
A: Its IC50 is 0.041 µM.

Q: For `Cc1c(Oc2ncc(Cl)cc2OCC(C)(F)F)ccc2nc(C(=O)NC3(C)CCS(=O)(=O)CC3)cn12` [Example 31, 6-[[5-chloro-3-(2,2-difluoropropoxy)-2-pyridyl]oxy]-5-methyl-N-(4-methyl-1,1-dioxo-thian-4-yl)imidazo[1,2-a]pyridine-2-carboxamide], which IC50 is on record?
A: The IC50 was 0.0091 µM.

Q: For `Cc1c(Oc2nccnc2OCC(F)(F)F)cc(F)c2nc(C(=O)NC3(C)CCS(=O)(=O)CC3)cn12` [Example 44, 8-fluoro-5-methyl-N-(4-methyl-1,1-dioxo-thian-4-yl)-6-[3-(2,2,2-trifluoroethoxy)pyrazin-2-yl]oxy-imidazo[1,2-a]pyridine-2-carboxamide], which IC50 is on record?
A: The IC50 was 0.068 µM.

Q: `Cc1c(C(=O)NC2(C)CCS(=O)(=O)CC2)nc2ccc(Oc3ncc(F)cc3OCC(F)(F)F)cn12` [Example 88, 6-[[5-fluoro-3-(2,2,2-trifluoroethoxy)-2-pyridyl]oxy]-3-methyl-N-(4-methyl-1,1-dioxo-thian-4-yl)imidazo[1,2-a]pyridine-2-carboxamide] was tested. Which IC50 did it give?
A: The IC50 was 0.0083 µM.

Q: How did the IC50 turn out when `CC1(NC(=O)c2cn3nc(OCc4ncc(Cl)cc4OCC(F)F)ccc3n2)CCS(=O)(=O)CC1` [Example 180, 6-((5-Chloro-3-(2,2-difluoroethoxy)pyridin-2-yl)methoxy)-N-(4-methyl-1,1-dioxidotetrahydro-2H-thiopyran-4-yl)imidazo[1,2-b]pyridazine-2-carboxamide] was run?
A: The IC50 was 0.053 µM.

Q: With `CCOc1cc(Cl)cnc1Oc1ccc2nc(C(=O)NC3(C)CS(=O)(=O)C3)c(C)n2c1` [Example 69, 6-[(5-chloro-3-ethoxy-2-pyridyl)oxy]-3-methyl-N-(3-methyl-1,1-dioxo-thietan-3-yl)imidazo[1,2-a]pyridine-2-carboxamide] as the compound, how does the IC50 read?
A: Its IC50 is 0.002 µM.

Q: For `CCOc1cccnc1Oc1ccc2nc(C(=O)NC3(C)CS(=O)(=O)C3)c(CC)n2c1` [Example 114, 6-[(3-ethoxy-2-pyridyl)oxy]-3-ethyl-N-(3-methyl-1,1-dioxo-thietan-3-yl)imidazo[1,2-a]pyridine-2-carboxamide], which IC50 is on record?
A: The IC50 was 0.064 µM.

Q: Which IC50 does the source give for `CC1(NC(=O)c2cn3cc(Oc4ncccc4O)ccc3n2)CCS(=O)(=O)CC1` [Example 60, 6-[(3-hydroxy-2-pyridyl)oxy]-N-(4-methyl-1,1-dioxo-thian-4-yl)imidazo[1,2-a]pyridine-2-carboxamide] here?
A: The IC50 was greater than 9.99 µM.

Q: For `Cc1c(C(=O)NC2(C)CCS(=O)(=O)CC2)nc2ccc(Oc3ncc(C(F)(F)F)cc3OCC(F)(F)F)cn12` [Example 92, 3-methyl-N-(4-methyl-1,1-dioxo-thian-4-yl)-6-[[3-(2,2,2-trifluoroethoxy)-5-(trifluoromethyl)-2-pyridyl]oxy]imidazo[1,2-a]pyridine-2-carboxamide], which IC50 is on record?
A: Its IC50 is 0.017 µM.

Q: For `Cc1c(C(=O)NC2(C)CS(=O)(=O)C2)nc2ccc(Oc3ncc(C(F)(F)F)nc3OCC(F)(F)F)cn12` [Example 103, 3-methyl-N-(3-methyl-1,1-dioxo-thietan-3-yl)-6-[3-(2,2,2-trifluoroethoxy)-5-(trifluoromethyl)pyrazin-2-yl]oxy-imidazo[1,2-a]pyridine-2-carboxamide], which IC50 is on record?
A: The IC50 was 0.071 µM.

Q: For `Cc1cc(Oc2ncccc2OCC(F)(F)F)cn2cc(C(=O)NC3(C)CCS(=O)(=O)CC3)nc12` [Example 24, 8-methyl-N-(4-methyl-1,1-dioxo-thian-4-yl)-6-[[3-(2,2,2-trifluoroethoxy)-2-pyridyl]oxy]imidazo[1,2-a]pyridine-2-carboxamide], which IC50 is on record?
A: The IC50 was 0.117 µM.

Q: For `CCOc1cccnc1Oc1ccc2nc(C(=O)NCc3ccccc3)cn2c1` [Example 53, N-benzyl-6-[(3-ethoxy-2-pyridyl)oxy]imidazo[1,2-a]pyridine-2-carboxamide], which IC50 is on record?
A: The IC50 was 0.346 µM.

Q: For `Cc1c(C(=O)NC2(C(C)C)CCS(=O)(=O)CC2)nc2ccc(Oc3ncc(F)cc3OCC(F)F)cn12` [Example 65, 6-[[3-(2,2-difluoroethoxy)-5-fluoro-2-pyridyl]oxy]-N-(4-isopropyl-1,1-dioxo-thian-4-yl)-3-methyl-imidazo[1,2-a]pyridine-2-carboxamide], which IC50 is on record?
A: The IC50 was 0.434 µM.

Q: With `CC1(NC(=O)c2nc3ccc(Oc4nccnc4OCC(F)(F)F)nn3c2Cl)CCS(=O)(=O)CC1` [Example 178, 3-chloro-N-(4-methyl-1,1-dioxo-thian-4-yl)-6-[3-(2,2,2-trifluoroethoxy)pyrazin-2-yl]oxy-imidazo[1,2-b]pyridazine-2-carboxamide] as the compound, how does the IC50 read?
A: Its IC50 is 4 µM.

Q: `O=C(N[C@H]1CCCC(F)(F)[C@@H]1O)c1cn2cc(Oc3ncc(F)cc3OCC(F)(F)F)ccc2n1` [Example 16, N-[(1S,2R)-3,3-difluoro-2-hydroxy-cyclohexyl]-6-[[5-fluoro-3-(2,2,2-trifluoroethoxy)-2-pyridyl]oxy]imidazo[1,2-a]pyridine-2-carboxamide] was tested. Which IC50 did it give?
A: Its IC50 is 0.0045 µM.

Q: Which IC50 does the source give for `Cc1c(C(=O)NC2(C)CS(=O)(=O)C2)nc2ccc(Oc3ncc(Cl)cc3OCC(F)F)nn12` [Example 167, 6-((5-chloro-3-(2,2-difluoroethoxy)pyridin-2-yl)oxy)-3-methyl-N-(3-methyl-1,1-dioxidothietan-3-yl)imidazo[1,2-b]pyridazine-2-carboxamide] here?
A: The IC50 was 0.011 µM.

Q: `Cc1c(C(=O)NC2(C)CCS(=O)(=O)CC2)nc2cc(F)c(Oc3ncc(F)cc3OCC(F)(F)F)cn12` [Example 118, 7-fluoro-6-[[5-fluoro-3-(2,2,2-trifluoroethoxy)-2-pyridyl]oxy]-3-methyl-N-(4-methyl-1,1-dioxo-thian-4-yl)imidazo[1,2-a]pyridine-2-carboxamide] was tested. Which IC50 did it give?
A: The IC50 was 0.0014 µM.

Q: Which IC50 does the source give for `CCOc1cccnc1Oc1ccc2nc(C(=O)N[C@@]3(C)CCS(=O)(=O)C3)cn2c1` [Example 35, 6-[(3-ethoxy-2-pyridyl)oxy]-N-[(3S)-3-methyl-1,1-dioxo-thiolan-3-yl]imidazo[1,2-a]pyridine-2-carboxamide] here?
A: The IC50 was 0.052 µM.

Q: Which IC50 does the source give for `CC1(NC(=O)c2cn3nc(Oc4ncc(F)cc4OCC4CC4)ccc3n2)CCS(=O)(=O)CC1` [Example 157, 6-[[3-(Cyclopropylmethoxy)-5-fluoro-2-pyridyl]oxy]-N-(4-methyl-1,1-dioxo-thian-4-yl)imidazo[1,2-b]pyridazine-2-carboxamide] here?
A: The IC50 was 0.018 µM.

Q: With `CC1(NC(=O)c2cn3nc(Oc4ncc(Cl)cc4OCC(F)(F)F)ccc3n2)CCS(=O)(=O)CC1` [Example 159, 6-[[5-Chloro-3-(2,2,2-trifluoroethoxy)-2-pyridyl]oxy]-N-(4-methyl-1,1-dioxo-thian-4-yl)imidazo[1,2-b]pyridazine-2-carboxamide] as the compound, how does the IC50 read?
A: Its IC50 is 0.211 µM.
